Experimental data as given in patent US7982043B2, “Protein tyrosine kinase enzyme inhibitors” (Wyeth LLC, priority 2003, dated 2011).
In brackets after ≈: the same amount, converted by molar mass. Where two headings read alike, the source gives them in different places.

Assays:
Assay type in all cases: cell-based
[1] = molecular target: mouse fibroblast cell line transfected with the HER-2 oncogene (3T3/neu) (UniProt P04626, cells depend on it, species not given); assay: Cell proliferation assay (SRB), 3T3/neu; settings: EGFR −, Her-2 +++; 2 days, SRB; read-out: CELL IC50 3T3/NEU (converted)
A431 cells = assay: Cell proliferation assay (SRB), A431; settings: Homo sapiens, A-431, 48 h, read-out: CELL IC50 A431
SK-Br-3 cells = assay: Cell proliferation assay (SRB), SK-Br-3; settings: Homo sapiens, SK-BR-3, 48 h; EGFR −, Her-2 +++; 2 days, SRB; read-out: CELL IC50 SKBr3
MDA-MB-435 cells = assay: Cell proliferation assay (SRB), MDA-MB-435; settings: Homo sapiens, MDA-MB-435, 48 h; EGFR −, Her-2 −; 2 days, SRB; read-out: CELL IC50 MDA-MB-435
SW620 cells = assay: Cell proliferation assay (SRB), SW620; settings: Homo sapiens, SW-620, 48 h; EGFR −, Her-2 −; 2 days, SRB; read-out: CELL IC50 SW620

SMILES	GI50 [1]	IC50 (A431 cells; EGFR +++, Her-2 +, 2 days, SRB)	IC50 (SK-Br-3 cells)	IC50 (MDA-MB-435 cells)	IC50 (SW620 cells)	IC50 (A431 cells)
CCOc1cc2ncc(C#N)c(Nc3ccc(Nc4nnc(C(F)(F)F)s4)c(Cl)c3)c2cc1[N+](=O)[O-] [Example 52, 4-(3-chloro-4-{[5-(trifluoromethyl)-1,3,4-thiadiazol-2-yl]amino}anilino)-7-ethoxy-6-nitro-3-quinolinecarbonitrile]	3.53 µM	1.79 mg/L (≈ 3.34 µM)	1.22 mg/L (≈ 2.28 µM)	1.84 mg/L (≈ 3.43 µM)	2.54 mg/L (≈ 4.74 µM)	
CCOc1cc2ncc(C#N)c(Nc3ccc(Oc4ccncc4)c(Cl)c3)c2cc1[N+](=O)[O-] [Example 54, 4-[3-chloro-4-(4-pyridinyloxy)anilino]-7-ethoxy-6-nitro-3-quinolinecarbonitrile]	> 10.8 µM	> 5 mg/L	> 5 mg/L	2.54 mg/L (≈ 5.5 µM)	> 5 mg/L	
CCOc1cc2ncc(C#N)c(Nc3ccc(Oc4ccncc4)c(Cl)c3)c2cc1N [Example 55, 6-amino-4-[3-chloro-4-(4-pyridinyloxy)anilino]-7-ethoxy-3-quinolinecarbonitrile]	> 11.6 µM	> 5 mg/L	> 5 mg/L	1.61 mg/L (≈ 3.73 µM)	> 5 mg/L	
CCOc1cc2ncc(C#N)c(Nc3ccc(Oc4ccncc4)c(Cl)c3)c2cc1NC(=O)/C=C/CN(C)C [Example 56, (E)-N-{4-[3-chloro-4-(4-pyridinyloxy)anilino]-3-cyano-7-ethoxy-6-quinolinyl}-4-(dimethylamino)-2-butenamide]	> 9.21 µM		1.51 mg/L (≈ 2.78 µM)	2.06 mg/L (≈ 3.79 µM)	> 5 mg/L	3.27 mg/L (≈ 6.02 µM)
COc1cc2ncc(C#N)c(Nc3ccc(NCc4cccnc4)c(Cl)c3)c2cc1[N+](=O)[O-] [Example 57, 4-{3-chloro-4-[(3-pyridinylmethyl)amino]anilino}-7-methoxy-6-nitro-3-quinolinecarbonitrile]	8.74 µM	1.6 mg/L (≈ 3.47 µM)	0.726 mg/L (≈ 1.58 µM)	1.87 mg/L (≈ 4.06 µM)	3.21 mg/L (≈ 6.96 µM)	
CCOc1cc2ncc(C#N)c(Nc3ccc(Nc4nnc(C(F)(F)F)s4)c(Cl)c3)c2cc1N [Example 59, 6-amino-4-(3-chloro-4-{[5-(trifluoromethyl)-1,3,4-thiadiazol-2-yl]amino}anilino)-7-ethoxy-3-quinolinecarbonitrile]	> 9.88 µM	> 5 mg/L	0.551 mg/L (≈ 1.09 µM)	0.91 mg/L (≈ 1.8 µM)	1.38 mg/L (≈ 2.73 µM)	
CCOc1cc2ncc(C#N)c(Nc3ccc(Cn4ccnc4)c(Cl)c3)c2cc1[N+](=O)[O-] [Example 60, 4-[3-chloro-4-(1H-imidazol-1-ylmethyl)anilino]-7-ethoxy-6-nitro-3-quinolinecarbonitrile]	> 11.1 µM	> 5 mg/L	2.44 mg/L (≈ 5.44 µM)	> 5 mg/L	> 5 mg/L	
CCOc1cc2ncc(C#N)c(Nc3ccc(Cn4ccnc4)c(Cl)c3)c2cc1N [Example 61, 6-amino-4-[3-chloro-4-(1H-imidazol-1-ylmethyl)anilino]-7-ethoxy-3-quinolinecarbonitrile]	> 11.9 µM	> 5 mg/L	0.75 mg/L (≈ 1.79 µM)	> 5 mg/L	> 5 mg/L	
CCOc1cc2ncc(C#N)c(Nc3ccc(Cn4ccnc4)c(Cl)c3)c2cc1NC(=O)/C=C/CN(C)C [Example 62, (E)-N-{4-[3-chloro-4-(1H-imidazol-1-ylmethyl)anilino]-3-cyano-7-ethoxy-6-quinolinyl}-4-(dimethylamino)-2-butenamide]	1.87 µM		0.045 mg/L (≈ 0.0849 µM)	2.1 mg/L (≈ 3.96 µM)	3.8 mg/L (≈ 7.17 µM)	0.95 mg/L (≈ 1.79 µM)
CCOc1cc2ncc(C#N)c(Nc3ccc(Sc4nccc(C)n4)c(Cl)c3)c2cc1[N+](=O)[O-] [Example 63, 4-{3-chloro-4-[(4-methyl-2-pyrimidinyl)sulfanyl]anilino}-7-ethoxy-6-nitro-3-quinolinecarbonitrile]	3.02 µM	1.2 mg/L (≈ 2.43 µM)	0.45 mg/L (≈ 0.913 µM)	1.3 mg/L (≈ 2.64 µM)	0.9 mg/L (≈ 1.83 µM)	
CCOc1cc2ncc(C#N)c(Nc3ccc(Sc4nccc(C)n4)c(Cl)c3)c2cc1N [Example 64, 6-amino-4-{3-chloro-4-[(4-methyl-2-pyrimidinyl)sulfanyl]anilino}-7-ethoxy-3-quinolinecarbonitrile]	6.54 µM	1.53 mg/L (≈ 3.3 µM)	> 5 mg/L	1.8 mg/L (≈ 3.89 µM)	2 mg/L (≈ 4.32 µM)	
CCOc1cc2ncc(C#N)c(Nc3ccc(Sc4nc(-c5ccccc5)cs4)c(C(F)(F)F)c3)c2cc1N [Example 68, 6-Amino-7-ethoxy-4-[4-(4-phenyl-thiazol-2-ylsulfanyl)-3-trifluoromethyl-phenylamino]-quinoline-3-carbonitrile]	4.47 µM	> 5 mg/L	0.943 mg/L (≈ 1.67 µM)	2.5 mg/L (≈ 4.44 µM)	3.1 mg/L (≈ 5.5 µM)	
CCOc1cc2ncc(C#N)c(Nc3ccc(Sc4nc(C)cc(C)n4)c(Cl)c3)c2cc1[N+](=O)[O-] [Example 74, 4-{3-chloro-4-[(4,6-dimethyl-2-pyrimidinyl)sulfanyl]anilino}-7-ethoxy-6-nitro-3-quinolinecarbonitrile]	> 9.86 µM	> 5 mg/L	> 5 mg/L	4.1 mg/L (≈ 8.09 µM)	> 5 mg/L	
CCOc1cc2ncc(C#N)c(Nc3ccc(Sc4nc(C)cc(C)n4)c(Cl)c3)c2cc1N [Example 75, 6-amino-4-{3-chloro-4-[(4,6-dimethyl-2-pyrimidinyl)sulfanyl]anilino}-7-ethoxy-3-quinolinecarbonitrile]	4.44 µM	0.76 mg/L (≈ 1.59 µM)	0.98 mg/L (≈ 2.05 µM)	1.3 mg/L (≈ 2.73 µM)	1.36 mg/L (≈ 2.85 µM)	

Stronger by GI50 [1], values ahead:

GI50 [1]	IC50 (A431 cells; EGFR +++, Her-2 +, 2 days, SRB)	IC50 (SK-Br-3 cells)	IC50 (MDA-MB-435 cells)	IC50 (SW620 cells)	SMILES	IC50 (A431 cells)
1.44 µM	0.728 mg/L (≈ 1.18 µM)	0.179 mg/L (≈ 0.29 µM)	0.95 mg/L (≈ 1.54 µM)	1.05 mg/L (≈ 1.7 µM)	CCOc1cc2ncc(C#N)c(Nc3ccc(Nc4nnc(C(F)(F)F)s4)c(Cl)c3)c2cc1NC(=O)/C=C/CN(C)C [Example 53, (E)-N-[4-(3-chloro-4-{[5-(trifluoromethyl)-1,3,4-thiadiazol-2-yl]amino}anilino)-3-cyano-7-ethoxy-6-quinolinyl]-4-(dimethylamino)-2-butenamide]	
1.15 µM	0.76 mg/L (≈ 1.28 µM)	0.268 mg/L (≈ 0.451 µM)	0.4 mg/L (≈ 0.674 µM)	0.4 mg/L (≈ 0.674 µM)	CCOc1cc2ncc(C#N)c(Nc3ccc(Sc4nc(-c5ccccc5)cs4)c(C(F)(F)F)c3)c2cc1[N+](=O)[O-] [Example 67, 7-ethoxy-6-nitro-4-[4-[(4-phenyl-1,3-thiazol-2-yl)sulfanyl]-3-(trifluoromethyl)anilino]-3-quinolinecarbonitrile]	
0.622 µM	0.3 mg/L (≈ 0.445 µM)	> 5 mg/L	0.3 mg/L (≈ 0.445 µM)	0.6 mg/L (≈ 0.889 µM)	CCOc1cc2ncc(C#N)c(Nc3ccc(Sc4nc(-c5ccccc5)cs4)c(C(F)(F)F)c3)c2cc1NC(=O)/C=C/CN(C)C [Example 69, (E)-N-{3-cyano-7-ethoxy-4-[4-[(4-phenyl-1,3-thiazol-2-yl)sulfanyl]-3-(trifluoromethyl)anilino]-6-quinolinyl}-4-(dimethylamino)-2-butenamide]	
0.191 µM	0.22 mg/L (≈ 0.351 µM)	0.01 mg/L (≈ 0.0159 µM)	0.08 mg/L (≈ 0.128 µM)	0.5 mg/L (≈ 0.797 µM)	COc1cc2ncc(C#N)c(Nc3ccc(Sc4ncc(-c5ccccc5)s4)c(Cl)c3)c2cc1NC(=O)/C=C/CN(C)C [Example 70, (E)-N-(4-{3-chloro-4-[(5-phenyl-1,3-thiazol-2-yl)sulfanyl]anilino}-3-cyano-7-methoxy-6-quinolinyl)-4-(dimethylamino)-2-butenamide]	
0.0312 µM	0.24 mg/L (≈ 0.374 µM)	0.006 mg/L (≈ 0.00936 µM)	0.18 mg/L (≈ 0.281 µM)	0.54 mg/L (≈ 0.842 µM)	CCOc1cc2ncc(C#N)c(Nc3ccc(Sc4nc(-c5ccccc5)cs4)c(Cl)c3)c2cc1NC(=O)/C=C/CN(C)C [Example 72, (E)-N-(4-{3-chloro-4-[(4-phenyl-1,3-thiazol-2-yl)sulfanyl]anilino}-3-cyano-7-ethoxy-6-quinolinyl)-4-(dimethylamino)-2-butenamide]	
0.017 µM	0.24 mg/L (≈ 0.408 µM)	0.006 mg/L (≈ 0.0102 µM)	0.2 mg/L (≈ 0.34 µM)	0.32 mg/L (≈ 0.544 µM)	CCOc1cc2ncc(C#N)c(Nc3ccc(Sc4nc(C)cc(C)n4)c(Cl)c3)c2cc1NC(=O)/C=C/CN(C)C [Example 66, (E)-N-(4-{3-chloro-4-[(4,6-dimethyl-2-pyrimidinyl)sulfanyl]anilino}-3-cyano-7-ethoxy-6-quinolinyl)-4-(dimethylamino)-2-butenamide]	
0.00523 µM	0.12 mg/L (≈ 0.209 µM)	0.001 mg/L (≈ 0.00174 µM)	0.3 mg/L (≈ 0.523 µM)	0.2 mg/L (≈ 0.348 µM)	CCOc1cc2ncc(C#N)c(Nc3ccc(Sc4nccc(C)n4)c(Cl)c3)c2cc1NC(=O)/C=C/CN(C)C [Example 65, (E)-N-(4-{3-chloro-4-[(4-methyl-2-pyrimidinyl)sulfanyl]anilino}-3-cyano-7-ethoxy-6-quinolinyl)-4-(dimethylamino)-2-butenamide]	
0.00336 µM	0.03 mg/L (≈ 0.0504 µM)	0.002 mg/L (≈ 0.00336 µM)	0.09 mg/L (≈ 0.151 µM)	0.4 mg/L (≈ 0.672 µM)	COCCN(C)C/C=C/C(=O)Nc1cc2c(Nc3ccc(Sc4nccs4)c(Cl)c3)c(C#N)cnc2cc1OC [Example 71, (E)-N-{4-[3-chloro-4-(1,3-thiazol-2-ylsulfanyl)anilino]-3-cyano-7-methoxy-6-quinolinyl}-4-[(2-methoxyethyl)(methyl)amino]-2-butenamide]	
